Assay [1] has as its target T1, Cyclin-dependent kinase-like 5 (Homo sapiens) (UniProt O76039).
T1 sequence (whole entry): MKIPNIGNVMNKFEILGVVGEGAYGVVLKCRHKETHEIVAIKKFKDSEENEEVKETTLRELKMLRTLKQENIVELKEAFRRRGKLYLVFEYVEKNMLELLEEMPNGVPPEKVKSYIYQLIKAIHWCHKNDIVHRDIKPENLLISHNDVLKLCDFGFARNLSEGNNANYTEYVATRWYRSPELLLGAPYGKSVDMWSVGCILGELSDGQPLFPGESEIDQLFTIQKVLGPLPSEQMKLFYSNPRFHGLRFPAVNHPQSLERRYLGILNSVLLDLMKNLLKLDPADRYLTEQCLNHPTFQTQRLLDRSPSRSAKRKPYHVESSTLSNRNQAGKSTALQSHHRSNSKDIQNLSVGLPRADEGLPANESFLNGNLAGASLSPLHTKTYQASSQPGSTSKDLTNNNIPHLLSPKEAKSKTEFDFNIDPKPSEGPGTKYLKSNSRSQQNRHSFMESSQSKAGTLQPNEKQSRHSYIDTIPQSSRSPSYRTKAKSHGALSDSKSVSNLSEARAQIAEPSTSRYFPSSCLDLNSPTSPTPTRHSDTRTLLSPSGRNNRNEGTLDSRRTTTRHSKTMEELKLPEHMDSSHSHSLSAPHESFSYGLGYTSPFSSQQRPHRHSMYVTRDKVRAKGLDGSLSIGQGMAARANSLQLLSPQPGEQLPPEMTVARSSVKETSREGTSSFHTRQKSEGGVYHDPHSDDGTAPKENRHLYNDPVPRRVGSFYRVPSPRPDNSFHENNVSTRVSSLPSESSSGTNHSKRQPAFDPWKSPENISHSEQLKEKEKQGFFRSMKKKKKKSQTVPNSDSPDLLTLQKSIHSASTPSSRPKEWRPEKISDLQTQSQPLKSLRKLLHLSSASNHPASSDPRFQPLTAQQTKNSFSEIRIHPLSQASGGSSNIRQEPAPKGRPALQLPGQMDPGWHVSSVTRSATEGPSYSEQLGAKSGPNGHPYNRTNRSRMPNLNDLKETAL
Kind of assay: Selectivity interaction (Kinase panel (Z-LYTE Assay)) EUB0001632a CDKL5. The conditions noted are these: at 10 µM.

Assay [2] has as its target T2, Ephrin type-B receptor 1 (Homo sapiens) (UniProt P54762).
T2 sequence (whole entry): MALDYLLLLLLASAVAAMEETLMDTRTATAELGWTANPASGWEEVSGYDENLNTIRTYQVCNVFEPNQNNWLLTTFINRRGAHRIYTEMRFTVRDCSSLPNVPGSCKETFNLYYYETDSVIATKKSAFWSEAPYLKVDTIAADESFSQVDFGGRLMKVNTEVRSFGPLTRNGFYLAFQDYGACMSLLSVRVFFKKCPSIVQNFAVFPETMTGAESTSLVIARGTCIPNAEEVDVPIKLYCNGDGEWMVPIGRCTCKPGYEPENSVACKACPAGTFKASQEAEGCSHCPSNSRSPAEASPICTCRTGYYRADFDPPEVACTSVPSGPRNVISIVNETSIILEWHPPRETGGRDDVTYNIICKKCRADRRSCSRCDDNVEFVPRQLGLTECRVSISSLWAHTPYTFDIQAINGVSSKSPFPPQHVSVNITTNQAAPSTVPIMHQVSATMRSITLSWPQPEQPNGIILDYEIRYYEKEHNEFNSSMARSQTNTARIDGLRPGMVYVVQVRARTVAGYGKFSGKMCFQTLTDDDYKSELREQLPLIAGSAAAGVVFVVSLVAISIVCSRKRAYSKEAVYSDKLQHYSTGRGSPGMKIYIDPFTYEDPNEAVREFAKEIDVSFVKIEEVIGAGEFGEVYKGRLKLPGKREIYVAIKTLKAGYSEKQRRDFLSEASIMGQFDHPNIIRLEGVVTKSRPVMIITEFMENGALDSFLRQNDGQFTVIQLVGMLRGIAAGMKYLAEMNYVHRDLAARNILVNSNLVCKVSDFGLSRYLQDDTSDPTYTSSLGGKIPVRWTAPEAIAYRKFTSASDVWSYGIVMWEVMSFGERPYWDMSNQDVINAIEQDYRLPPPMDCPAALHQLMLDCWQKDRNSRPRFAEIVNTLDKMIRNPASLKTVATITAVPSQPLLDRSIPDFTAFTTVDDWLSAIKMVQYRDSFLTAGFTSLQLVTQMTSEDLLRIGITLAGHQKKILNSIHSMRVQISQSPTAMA
As to the kind of experiment: Selectivity interaction (Ambit KINOMEscan and KiNATiv profiling in Jurkat cells) EUB0000090b EPHB1. Type of assay: cell-based. The settings on record: at 1 µM.

Assay [3] has as its target T3, Membrane-associated tyrosine- and threonine-specific cdc2-inhibitory kinase (Homo sapiens) (UniProt Q99640).
T3 sequence (whole entry): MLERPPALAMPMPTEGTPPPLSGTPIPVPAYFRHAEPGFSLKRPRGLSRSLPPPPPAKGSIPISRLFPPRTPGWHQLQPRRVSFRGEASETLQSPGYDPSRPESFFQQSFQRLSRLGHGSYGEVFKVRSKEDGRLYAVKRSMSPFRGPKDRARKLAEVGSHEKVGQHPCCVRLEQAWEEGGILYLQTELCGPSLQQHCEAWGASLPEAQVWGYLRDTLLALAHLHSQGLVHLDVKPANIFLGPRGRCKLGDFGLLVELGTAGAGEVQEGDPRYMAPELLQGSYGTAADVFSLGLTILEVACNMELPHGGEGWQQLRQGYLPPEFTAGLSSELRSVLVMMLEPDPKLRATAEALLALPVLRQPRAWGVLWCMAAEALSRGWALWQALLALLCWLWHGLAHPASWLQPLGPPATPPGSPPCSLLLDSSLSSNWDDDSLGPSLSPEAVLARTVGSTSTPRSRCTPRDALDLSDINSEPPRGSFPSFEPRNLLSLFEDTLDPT
Kind of assay: Selectivity interaction (Kinase panel (DSF assay)) EUB0001558a PKMYT1.

Assay [4] deals with Angiopoietin-1 receptor (Homo sapiens) (UniProt Q02763). As to the kind of experiment: Selectivity interaction (KinomeScan (DiscoverX)) EUB0001079a TEK. The conditions noted are these: at 1 µM.
The target in assay [5] is Ribosomal protein S6 kinase alpha-5 (Homo sapiens) (UniProt O75582). As to the kind of experiment: Selectivity interaction (KinomeScan (DiscoverX)) EUB0000695a RPS6KA5. The settings on record: at 100 nM.
Chain of Ribosomal protein S6 kinase alpha-5 (Homo sapiens) (O75582 whole entry, looked up): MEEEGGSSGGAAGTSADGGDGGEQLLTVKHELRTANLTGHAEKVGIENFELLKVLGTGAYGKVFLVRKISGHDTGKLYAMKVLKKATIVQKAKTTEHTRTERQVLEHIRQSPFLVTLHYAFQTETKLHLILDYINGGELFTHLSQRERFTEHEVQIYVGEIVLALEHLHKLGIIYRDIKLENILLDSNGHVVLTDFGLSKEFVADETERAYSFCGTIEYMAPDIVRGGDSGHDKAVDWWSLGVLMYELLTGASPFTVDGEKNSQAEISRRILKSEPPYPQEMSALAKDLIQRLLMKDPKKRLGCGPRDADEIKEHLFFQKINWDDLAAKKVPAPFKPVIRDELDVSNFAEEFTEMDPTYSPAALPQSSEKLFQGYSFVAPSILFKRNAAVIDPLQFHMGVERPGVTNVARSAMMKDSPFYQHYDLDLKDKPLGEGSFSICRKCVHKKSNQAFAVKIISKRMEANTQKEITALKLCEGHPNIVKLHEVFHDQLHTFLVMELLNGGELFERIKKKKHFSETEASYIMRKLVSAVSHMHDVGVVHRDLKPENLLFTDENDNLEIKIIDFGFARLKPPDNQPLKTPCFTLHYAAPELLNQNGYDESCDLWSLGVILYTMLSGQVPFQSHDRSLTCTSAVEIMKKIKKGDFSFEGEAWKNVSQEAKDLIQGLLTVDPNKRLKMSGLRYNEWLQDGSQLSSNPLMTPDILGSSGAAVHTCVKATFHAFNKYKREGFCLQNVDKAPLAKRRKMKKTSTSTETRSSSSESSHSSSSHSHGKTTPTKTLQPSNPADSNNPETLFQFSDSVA

Chain of Angiopoietin-1 receptor (Homo sapiens) (Q02763 whole entry): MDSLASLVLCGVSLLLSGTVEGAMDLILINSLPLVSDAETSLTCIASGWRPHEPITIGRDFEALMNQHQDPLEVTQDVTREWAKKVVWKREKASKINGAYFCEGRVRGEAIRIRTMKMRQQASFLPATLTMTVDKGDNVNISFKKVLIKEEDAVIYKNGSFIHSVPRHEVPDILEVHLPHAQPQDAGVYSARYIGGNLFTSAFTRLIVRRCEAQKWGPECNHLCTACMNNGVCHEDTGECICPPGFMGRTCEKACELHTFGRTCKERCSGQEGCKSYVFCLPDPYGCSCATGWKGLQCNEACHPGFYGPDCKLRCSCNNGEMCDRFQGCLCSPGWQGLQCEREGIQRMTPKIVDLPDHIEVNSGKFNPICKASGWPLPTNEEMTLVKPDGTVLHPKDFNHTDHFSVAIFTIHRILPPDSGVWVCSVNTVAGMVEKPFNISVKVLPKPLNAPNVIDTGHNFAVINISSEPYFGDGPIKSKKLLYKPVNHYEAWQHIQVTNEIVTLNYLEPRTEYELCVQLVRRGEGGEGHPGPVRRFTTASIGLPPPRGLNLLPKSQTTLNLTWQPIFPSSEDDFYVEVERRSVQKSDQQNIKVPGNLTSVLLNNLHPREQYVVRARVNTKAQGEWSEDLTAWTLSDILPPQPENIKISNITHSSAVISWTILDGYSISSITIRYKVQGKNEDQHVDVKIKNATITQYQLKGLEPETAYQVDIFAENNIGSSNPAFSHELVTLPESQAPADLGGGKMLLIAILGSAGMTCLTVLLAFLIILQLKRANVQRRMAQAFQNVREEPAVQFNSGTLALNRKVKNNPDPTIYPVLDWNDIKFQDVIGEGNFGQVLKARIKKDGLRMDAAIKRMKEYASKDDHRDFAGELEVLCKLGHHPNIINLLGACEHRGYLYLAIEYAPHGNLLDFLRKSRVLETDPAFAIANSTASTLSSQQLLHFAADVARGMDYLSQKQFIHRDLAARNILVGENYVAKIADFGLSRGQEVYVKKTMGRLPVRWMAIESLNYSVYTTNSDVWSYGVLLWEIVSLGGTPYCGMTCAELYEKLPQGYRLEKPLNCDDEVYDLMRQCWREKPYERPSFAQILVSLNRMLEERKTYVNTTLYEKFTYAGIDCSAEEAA

In assay [1], `Cn1cc(-n2cnc3c(NCc4nc5cc(Cl)c(Cl)cc5[nH]4)nc(N4CCOCC4)nc32)cn1` came in with a % of control of 4.16%.

For `CN(C)C/C=C/C(=O)Nc1ccc(C(=O)N2CCCC(Nc3ncc(Cl)c(-c4c[nH]c5ccccc45)n3)C2)cc1` (stereo not given), the % of control in assay [2] was found to be 95%. `CC(C)(O)[C@H](F)CN1Cc2cc(NC(=O)c3cnn4cccnc34)c(N3CCOCC3)cc2C1=O` came in with a dTM in assay [3] of 0.5 K.

As for `Nc1cnc(N2CCc3cc(S(=O)(=O)Nc4c(F)cc(Cl)cc4F)cc(N4CCCC4=O)c32)nc1` [TP-020n], the % of control in assay [4] was determined as 78%. Take `Cc1cc(F)c(C(=O)Nc2cccc(-c3nncn3C(C)C)n2)cc1-n1cnc(C2CC2)c1`: in assay [5], the % of control is 100%.

The record behind these values is ChEMBL document CHEMBL5465560, “Selectivity Literature for EUbOPEN Chemogenomic Library” (2024).
